Source: patent publication US11660326B2, “Bacterial-binding peptides for treatment of infectious diseases and related inflammatory processes” (priority 2018, dated 2023)

Assays:
[1] = system: G+ and G− bacterial suspensions (including MDR strains); assay: Bacterial agglutination assay; type: cell-based; conditions: peptide 5, 50 and 200 μg/mL; G+ and G− bacterial suspensions incl. MDR strains
Experimental: FIG. 2. Bacterial agglutination properties of CD6-derived peptides. Increasing concentrations (5, 50 and 200 μg/mL) of the indicated CD6 (PD1, PD2, and PD3), DMBT-1 (pbs1; C+) and CD5 (PD2; C-)-derived peptides were incubated for 2 h at room temperature in 96-well U-bottomed plates with alive bacterial cell suspensions (75×10^6 CFU/mL) in TTC buffer (50 mM Tris pH 7.5 plus 150 mM NaCl, 0.1% Tween 20, and 1 mM Ca^2+). Bacterial agglutination was scored and condensed by two independent observers as −, +/−, +, ++ or +++. (A) Summary of the agglutination results obtained with the indicated panel of Gram-negative (Multidrug resistant Acinetobacter baumanii clinical isolate; Enterobacter cloacae ATCC 23355; Escherichia coli ATCC 25922; Klebsiella pneumoniae ATCC 13883; […]; Pseudomonas aeruginosa ATCC 27853) and Gram-positive (Staphyloccocus aureus ATCC 25923; Methicilin-resistant Staphylococus aureus (MRSA) clinical isolate) bacterial strains. (B) Representative agglutination results obtained for the MRSA clinical isolate.
5×10^8 colony-forming units (CFU)/mL diluted in TTC buffer (50 mM Tris pH 7.5 plus 150 mM NaCl, 0.1% Tween 20, and 1 mM Ca^2+) were mixed (1:1) with different peptide concentrations (0-200 μg/mL) in 96 U-bottomed well microtiter plates (Biofil) (Bikker F J, et al., 2002, Identification of the bacteria-binding peptide domain on salivary agglutinin (gp-340/DMBT1), a member of the scavenger receptor cysteine-rich superfamily, J Biol Chem 277:32109-15). After overnight incubation at 37° C., bacterial agglutination was examined by light microscopy and scored from -(absent) to +++ (maximal) by two independent observers. […]

[2] = system: mice undergoing CLP-induced septic shock; assay: Mouse survival following CLP-induced septic shock; type: in vivo, C57BL/6J mice; conditions: for effect on mice survival, in words: CLP-induced sepsis, compared to saline-treated group; for survival: single 6 mg/kg i.v. at +1 h post CLP, FIG. 7
Experimental: FIG. 7. Comparative therapeutic effects of i.v. infused CD6-derived peptides on mouse survival following Cecal Ligation and Puncture (CLP)-induced sepsis. (A, B) C57BL/6J mice were i.v. infused with saline (n=25) or single 6 mg/kg doses of unlabeled CD6- (PD1, n=8; PD2, n=16; PD3, n=15; Pcons, n=12) or DMBT1 (pbs1, n=13) derived peptides at +1 h post CLP induction. A sham group (n=3) was included. In all cases average percent survival was analyzed over time for each group and compared with the saline-treated group using the long-rank t-test (*, P<0.05; **, P<0.01; ***, P<0.001).
FIG. 8. Dose-, time- and via-dependent effects of CD6.PD3 infusion on mouse survival following CLP-induced sepsis. (A) C57BL/6 mice were i.v. infused at +1 h post CLP with saline (n=26) or single increasing doses (3 mg/kg, n=13; 6 mg/kg, n=15; and 12 mg/kg, n=8) of CD6.PD3 peptide. (B) C57BL/6 mice were i.v. infused with saline (n=4) or 6 mg/kg CD6.PD3 at different times post CLP (+1 h, n=5; +3 h, n=5; +6 h, n=6). (C) C57BL/6J mice were i.v. (n=11) or i.p. (n=9) infused with 6 mg/kg CD6.PD3 peptide or saline (n=9) at +1 h post CLP. In all cases, average percent of survival was analyzed over time and compared with the saline-treated group using a log-rank t-test (n.s., not significant; *, P<0.05. **, P<0.01; ***, P<0.001).
FIG. 10. Additive effects of combined administration of CD6.PD3 plus Imipenem/Cilastatin on mouse survival following CLP-induced sepsis. C57BL/6J mice were therapeutically infused at +1 h post CLP with saline (n=36), CD6.PD3 (6 mg/kg i.v.; n=25), Imipenem/Cilastatin (I/C, 50 mg/kg/12 h i.p.; n=9) or a combination of the two later (I/C+PD3, n=11). In all cases average percent survival was analyzed over time for each group and compared to the I/C plus CD6.PD3 group using the long-rank t-test (**, P<0.02; ***, P<0.002).
Animal procedures were approved by the Animal Experimentation Ethical Committee, University of Barcelona. High-grade mortality (≥90% mortality within the first 48-72 h) CLP-induced septic shock was induced in 8-10 week old C57BL/6J male mice (20-25 g; Charles River) as previously reported (Martinez-Florensa M, et al., 2017, Protective Effects of Human and Mouse Soluble Scavenger-Like CD6 Lymphocyte Receptor in a Lethal Model of Polymicrobial Sepsis, Antimicrob Agents Chemother 61:e01391-16).
Survival assays were analyzed by a Log-Rank χ^2 test using GraphPad Prism software. The significance of differences between experimental groups was determined by 2-tailed paired T test with 95% of confidence intervals (CI). P values were considered significant when P<0.05. Statistical analysis (mean±SEM) was performed using a 2-tailed Mann-Whitney test, with 95% of Cl.

[3] = Dynamic light scattering (DLS), hydrodynamic size of peptides in solution; type: physicochemical; conditions: 10 μg/mL in PBS, 25° C.
Experimental: FIG. 5. Analysis of the hydrodynamic size of CD6-derived peptides in solution. The dynamic light scattering (DLS) analysis of the hydrodynamic diameter of CD6 (PD1, PD2, PD3, and Pcons) and DMBT-1/SAG (pbs1) derived peptides (10 μg/mL) in PBS is shown. The y axis represents the relative intensity of the scattered light; the x axis denotes the hydrodynamic diameter of the particles present in the solution. One representative experiment of four performed is shown (left). The numeric values obtained for each peptide are also shown (right).
The hydrodynamic diameters of peptides (10 μg/mL in PBS) were measured at 25° C. in a Zetasizer Nano S from Malvern Instruments (Worcestershire, UK) equipped with a 633 nm HeNe laser, as described (Saenz A, et al., 2010, Fluidizing effects of C-reactive protein on lung surfactant membranes: protective role of surfactant protein A, FASEB J 24:3662-73). Four scans were recorded for each sample, and samples were analyzed in triplicate.

| Sequence | bacterial agglutination [1] | survival rate post CLP ([2]; 3 mg/kg i.v. at +1 h post CLP, FIG. 8A) | survival, i.v. versus i.p. pathway ([2]; 6 mg/kg at +1 h post CLP, FIG. 8C) | survival rate post CLP ([2]; 6 mg/kg i.v. at +1 h post CLP, FIG. 8A) | survival rate post CLP ([2]; 6 mg/kg i.v. at +1 h post CLP, FIG. 8B) | survival rate post CLP ([2]; 6 mg/kg i.v. at +3 h post CLP, FIG. 8B) | survival rate post CLP ([2]; 12 mg/kg i.v. at +1 h post CLP, FIG. 8A) | mice survival ([2]; +1 h post CLP, CD6.PD3 6 mg/kg i.v., Imipenem/Cilastatin 50 mg/kg/12 h i.p., FIG. 10) | effect on mice survival, in words [2] | survival [2] | hydrodynamic size, first (or single) peak [3] | hydrodynamic size, second peak [3] |
| --- | --- | --- | --- | --- | --- | --- | --- | --- | --- | --- | --- | --- |
| GQVEVHFRGVW (CD6.PD3) | dose-dependent agglutination | 23.08% | No significant differences | 37.5% | 40% | 20% | 40% | 30.8% | improves the survival | 36.36% | 630±3 nm | 5151±7 nm |
| GRVEMLEHGEW [CD6.PD2] | not and lower bacterial agglutination properties |  |  |  |  |  |  |  |  | 12.5% | 379±5 nm |  |
| GTVEVRLEASW [CD6.PD1] | dose-dependent agglutination |  |  |  |  |  |  |  | No significant effects |  | 321±5 nm | 1484±8 nm |
